From US12090146B2, “Substituted-pyridinyl compounds and uses thereof” (Bionomics Limited, priority 2018, dated 2024)

Assays:
hKv3.1 = target: T1, hKv3.1 (Homo sapiens, UniProt P48547); experiment: Automated patch clamp (Patchliner) whole-cell electrophysiology, Kv3.1; type: cell-based; conditions: 10 μM compound, CHO-K1 cells stably expressing hKv3.1; for Kv3.1 Activity at 10 μM Potentiation (%): % potentiation of peak current at −10 mV voltage step vs vehicle; for Kv3.1 Activity at 10 μM Voltage Shift (mV): voltage shift of the IV curve at V1/2
T1 construct: expressed in transfected cells
T1 sequence (P48547 1-511): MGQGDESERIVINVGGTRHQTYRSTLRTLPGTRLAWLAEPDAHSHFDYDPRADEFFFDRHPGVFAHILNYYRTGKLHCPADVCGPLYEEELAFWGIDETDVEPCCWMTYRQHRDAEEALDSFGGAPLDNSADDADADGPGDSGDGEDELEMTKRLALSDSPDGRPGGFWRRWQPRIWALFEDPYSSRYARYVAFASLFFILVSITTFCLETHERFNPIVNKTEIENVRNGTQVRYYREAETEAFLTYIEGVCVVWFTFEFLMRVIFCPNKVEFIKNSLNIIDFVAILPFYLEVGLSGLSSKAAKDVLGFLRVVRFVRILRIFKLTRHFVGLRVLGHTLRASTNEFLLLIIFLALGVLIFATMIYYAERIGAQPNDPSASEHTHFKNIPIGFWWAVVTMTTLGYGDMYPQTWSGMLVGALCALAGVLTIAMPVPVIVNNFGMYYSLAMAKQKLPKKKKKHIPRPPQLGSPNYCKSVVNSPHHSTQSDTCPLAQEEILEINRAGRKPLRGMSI
Method: (§1) hKv3.1, hKv3.2, hKv3.3, and hKv3.4 were stably expressed in CHO-K1 (Chinese hamster ovary) cells and kept under constant antibiotic selection. For in vitro assays, cells were maintained in appropriate growth medium at 37° C. and 5% CO2 in a humidified incubator.
(§2) hKv3.X expressing cells were plated in T-25 flasks for 3-4 days at 37° C. (no selection antibiotic) prior to use and grown to 80% confluence. Cells were washed twice with PBS (calcium and magnesium free) and detached with a 5-minute treatment at 37° C. with 2-3 mls of Accutase®. Cells were collected, and flask was washed in CHO-SFM II media (Life Technologies Gibco), centrifuged for 2 minutes at ˜110×g and resuspended to obtain a single cell suspension of ˜2-3×10^6 cells/ml.
(§3) The intracellular solution contained the following (in mM): KCl 50, NaCl 10, KF 60, EGTA 20, HEPES 10, adjusted to pH 7.2 with KOH and an osmolarity of 285 mOsmol. Seal enhancer was purchased from Nanion (80 mM NaCl, 3 mM KCl, 10 mM MgCl2, 35 mM CaCl2), 10 mM HEPES, pH7.4, 298 mOsmol. The external solution contained (in mM): NaCl 140, KCl 4, CaCl2) 2, MgCl2 1, HEPES 10, Glucose 5, adjusted to pH7.4 and an osmolarity of 298 mOsmol.
(§4) All compounds were initially tested at 10 uM at a final DMSO concentration of 0.33%. Compounds were dissolved in dimethylsulfoxide (DMSO) at a stock concentration of 30 mM. The compound was further diluted 1:10 to give a stock concentration of 3 mM in DMSO. The final assay solution was diluted 1:300 in External solution to give a final concentration of 10 uM. For the DMSO Control Buffer 30 uL of DMSO was added to 10 mL buffer.
(§5) All electrophysiological recordings were performed at ambient temperature (21-23° C.) using automated patch clamp (Patchliner, Nanion Technologies GmbH) in the whole-cell configuration.
(§6) Cell membrane potentials were held at −80 mV, and currents were evoked by voltage steps (1000 ms duration) from −60 to +60 mV in 10 mV increments. This was performed first with vehicle (0.33% DMSO) and then with 10 uM compound, after a 3-minute incubation period. Data was taken from 4 cells per assay.
(§7) The recordings were analysed and selected using peak current amplitude (>100 pA at the −10 mV voltage step) in the absence of compound to eliminate unsuitable cells from analysis. Peak current amplitude was measured and recorded for each voltage step and data was normalised to the maximum current at +60 mV. The normalised Kv3.x currents following addition of the compound were then compared with the currents recorded prior to compound addition (vehicle control). Positive modulation was determined as % potentiation at the voltage step of −10 mV=[current (cmpd)/current (veh)]*100−100. % potentiation ≥50% was considered acceptable. In addition, voltage shift of the IV curve at V1/2 was measured. V1/2 of ≥−5 mV was also considered acceptable. IV curves were plotted in GraphPad Prism (software version 6.0) and fitted with a Boltzmann equation, where V1/2 is the voltage at half-maximal activation.

hKv3.2 = target: T2, hKv3.2 (Homo sapiens, UniProt Q96PR1); experiment: Automated patch clamp (Patchliner) whole-cell electrophysiology, Kv3.2; type: cell-based; conditions: 10 μM compound, CHO-K1 cells stably expressing hKv3.2; for activation at 10 µM: % potentiation of peak current at −10 mV voltage step vs vehicle; for Kv3.2 Activity at 10 μM Voltage Shift (mV): voltage shift of the IV curve at V1/2
T2 construct: expressed in transfected cells
T2 sequence (Q96PR1 1-638): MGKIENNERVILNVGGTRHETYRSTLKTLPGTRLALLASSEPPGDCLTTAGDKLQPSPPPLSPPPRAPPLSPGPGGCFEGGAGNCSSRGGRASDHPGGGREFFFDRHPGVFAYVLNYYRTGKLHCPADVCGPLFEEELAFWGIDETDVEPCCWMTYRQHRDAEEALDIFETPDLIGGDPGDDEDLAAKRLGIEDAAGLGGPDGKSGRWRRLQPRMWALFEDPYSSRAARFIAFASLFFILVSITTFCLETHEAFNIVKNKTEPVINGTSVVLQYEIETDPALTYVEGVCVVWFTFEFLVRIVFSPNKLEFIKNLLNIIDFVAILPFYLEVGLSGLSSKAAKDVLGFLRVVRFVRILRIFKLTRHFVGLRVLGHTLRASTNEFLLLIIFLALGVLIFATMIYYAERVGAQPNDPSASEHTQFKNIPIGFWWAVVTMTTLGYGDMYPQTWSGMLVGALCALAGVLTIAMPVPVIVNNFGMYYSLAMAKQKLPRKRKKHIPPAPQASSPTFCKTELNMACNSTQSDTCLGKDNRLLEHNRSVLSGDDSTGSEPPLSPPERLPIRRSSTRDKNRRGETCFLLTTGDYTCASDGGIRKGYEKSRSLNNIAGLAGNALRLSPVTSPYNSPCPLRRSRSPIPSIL
Method: as §1, §2, §3, §4, §5, §6, §7

Compound	Kv3.1 Activity at 10 μM Potentiation (%) (hKv3.1)	Kv3.1 Activity at 10 μM Voltage Shift (mV) (hKv3.1)	activation at 10 µM (hKv3.2) [%]	Kv3.2 Activity at 10 μM Voltage Shift (mV) (hKv3.2)
COc1cc(Oc2cc(N3C(=O)NC4(CCC4)C3=O)ccn2)ccc1C [Example 34, 7-[2-(3-methoxy-4-methyl-phenoxy)-4-pyridyl]-5,7-diazaspiro[3.4]octane-6,8-dione]	27	−4.19	25	−1.25
O=C1NC2(CCCCC2)C(=O)N1c1ccnc(Oc2ccc3c(c2)OCO3)c1 [Example 35, 3-[2-(1,3-benzodioxol-5-yloxy)-4-pyridyl]-1,3-diazaspiro[4.5]decane-2,4-dione]	41	−3.4	55	−3.73
O=C1NC2(CCCC2)C(=O)N1c1ccnc(Oc2ccc3c(c2)OC(F)(F)O3)c1 [Example 36, 3-[2-[(2,2-difluoro-1,3-benzodioxol-5-yl)oxy]-4-pyridyl]-1,3-diazaspiro[4.4]nonane-2,4-dione]	85	−6.21	43	−4.8
O=C1NC2(CCC2)C(=O)N1c1ccnc(Oc2ccc3c(c2)OC(F)(F)O3)c1 [Example 37, 7-[2-[(2,2-difluoro-1,3-benzodioxol-5-yl)oxy]-4-pyridyl]-5,7-diazaspiro[3.4]octane-6,8-dione]	90	−5.21	63	−3.6
COc1cc(Oc2cncc(N3C(=O)NC(C)(C)C3=O)c2)ccc1C [Example 39, 3-[5-(3-methoxy-4-methyl-phenoxy)-3-pyridyl]-5,5-dimethyl-imidazolidine-2,4-dione]	25	−2.77	31	−3.78
CC[C@H]1NC(=O)N(c2cc(Oc3ccc(C)c(OC)c3)ccn2)C1=O [Example 41, (5R)-5-ethyl-3-[4-(3-methoxy-4-methyl-phenoxy)-2-pyridyl]imidazolidine-2,4-dione]	67	−4.46	53	−3.77
COc1cc(Oc2ccnc(N3C(=O)NC(C)(C)C3=O)c2)ccc1C [Example 44, 3-[4-(3-methoxy-4-methyl-phenoxy)-2-pyridyl]-5,5-dimethyl-imidazolidine-2,4-dione]	45	−3.03	28	−2.81
CC[C@@]1(C)NC(=O)N(c2cc(Oc3ccc(C)c(OC)c3)ccn2)C1=O [Example 45, (5R)-5-ethyl-3-[4-(3-methoxy-4-methyl-phenoxy)-2-pyridyl]-5-methyl-imidazolidine-2,4-dione]	19	−2.36	61	−6.69
CC[C@H]1NC(=O)N(c2cccc(Oc3ccc(C)c(OC)c3)n2)C1=O [Example 48, (5R)-5-ethyl-3-[6-(3-methoxy-4-methyl-phenoxy)-2-pyridyl]imidazolidine-2,4-dione]	62	−4.26	61	−5.3
CC[C@@]1(C)NC(=O)N(c2cccc(Oc3ccc(C)c(OC)c3)n2)C1=O [Example 58, (5R)-5-ethyl-3-[6-(3-methoxy-4-methyl-phenoxy)-2-pyridyl]-5-methyl-imidazolidine-2,4-dione]	35	−5.32	33	−2.6
CC[C@@]1(C)NC(=O)N(c2cccc(Oc3cc(OC)cc(OC)c3)n2)C1=O [Example 70, (5R)-3-[6-(3,5-dimethoxyphenoxy)-2-pyridyl]-5-ethyl-5-methyl-imidazolidine-2,4-dione]	44	−2.08	34	−2.42
COc1cc(Oc2cccc(N3C(=O)NC4(CCCCC4)C3=O)n2)ccc1C [Example 75, 3-[6-(3-methoxy-4-methyl-phenoxy)-2-pyridyl]-1,3-diazaspiro[4.5]decane-2,4-dione]	15	−4.01	5	0
CC1(C)NC(=O)N(c2ccc(F)c(Oc3ccc4c(c3)OC(F)(F)O4)n2)C1=O [Example 84, 3-[6-[(2,2-difluoro-1,3-benzodioxol-5-yl)oxy]-5-fluoro-2-pyridyl]-5,5-dimethyl-imidazolidine-2,4-dione]	30	−2.27	14	−1.69
COc1cc(Oc2nccc(N3C(=O)NC4(CCCC4)C3=O)c2F)ccc1C [Example 90, 3-[3-fluoro-2-(3-methoxy-4-methyl-phenoxy)-4-pyridyl]-1,3-diazaspiro[4.4]nonane-2,4-dione]	217	−10.39	121	−7.43
COc1cc(Oc2nccc(N3C(=O)NC4(CCCCC4)C3=O)c2F)ccc1C [Example 91, 3-[3-fluoro-2-(3-methoxy-4-methyl-phenoxy)-4-pyridyl]-1,3-diazaspiro[4.5]decane-2,4-dione]	150	−10.63	137	−6.75
